Results published in patent US20230015532A1, “PHARMACEUTICAL COMPOSITION, FOR PREVENTING OR TREATING FIBROSIS, COMPRISING PHEOPHORBIDE COMPOUND AS ACTIVE INGREDIENT” (PAEAN BIOTECHNOLOGY INC., priority 2019, published 2023).

Experiments:
[1] = test system: pulmonary fibrosis induced by bleomycin (BLM) in C57BL/6NCr10ri mice; experiment: Bleomycin-induced pulmonary fibrosis model mice; type: in vivo; conditions: oral once daily Day 1 to Day 21, 1.25-80 mg/kg
Description: Mice were weighed and divided into total seven groups, and then administered intratracheally with sterile physiological saline in the vehicle control group and with BLM in the other groups than the vehicle control group on Day 1 to induce pulmonary fibrosis. Then, from Day 1 to Day 21, DMSO (sigma D2650-5X) devoid of the effective substance was administered to the vehicle control group and the negative control group (fibrosis control).
In addition, T1 to T4 groups and the positive control group were orally administered with the effective substance (pheophorbide a) and nintedanib, respectively, once daily. […]
Following the administration, the death and the moribund status were observed once daily, and general symptoms such as appearance and behavioral changes were observed twice daily. […] Body weight was measured 7 times in total (Day 1, 2, 4, 8, 11, 15 and 18) during the administration and once on the autopsy day.
On Day 22, the animals were euthanized by isoflurane inhalation and subjected to autopsy. […] The organ weight ratio of the extracted lungs was calculated by using the following calculation formula. […]
The results of the experiments were expressed by the mean and the standard deviation and statistically analyzed using Pristima System or Statistical Analysis System (SAS/STAT).

[2] = test system: collagen 1A in CCD8-Lu cells; experiment: Comparison of anti-fibrotic activity by immunocytochemistry staining (Experimental Example 4.3); type: cell-based, human; conditions: 2.5 μM and 5 μM; 6 hours after 5 ng/ml TGF-β; fluorescence intensity
Description: A cell-based analysis experiment was performed to analyze the anti-fibrotic activity of pheophorbide a in comparison with nintedanib and pirfenidone, which were previously approved as a therapeutic agent for pulmonary fibrosis, using immunocytochemistry staining method. CCD8-Lu cells, which are human lung-derived fibroblasts, were cultured in the DMEM medium containing 10% FBS. About 2×10^4 cells were then inoculated into a 24 well plate and cultured for 24 hours, and subjected to the deficient condition in the DMEM medium from which FBS was removed for about 24 hours. After 24 hours, following the treatment with TGF-β at a concentration of 5 ng/ml, fibrosis of cells was induced for 6 hours. After 6 hours, the cells were treated with 2.5 μM or 5 μM of pheophorbide a, 1 μM of nintedanib, or 1 mM of pirfenidone. Immunohistochemistry analysis for each sample was performed as follows. First, the sample was washed twice with a PBS buffer, and then 4% formaldehyde was added to fix for 1 hour, and anti-collagen 1A was used as a primary antibody and Alexa Fluor 488 was used as a secondary antibody. The nuclei were stained using DAPI (4,6-diamidino-2-phenylindole) and the difference in the intensity of fluorescence was analyzed using a fluorescence microscope.

[3] = test system: phosphorylated Smad3 and phosphorylated ERK in CCD8-Lu cells; experiment: Western blotting of phosphorylated proteins of TGF-β signaling (Experimental Example 5); type: cell-based, human; conditions: 5 μM, 6 hours after 5 ng/ml TGF-β
Description: A cell-based assay experiment was performed using Western blotting assay to determine the effect of pheophorbide a on phosphorylation in the TGF-β signaling pathway. CCD8-Lu cells, which are human lung-derived fibroblasts, were cultured in the DMEM medium containing 10% FBS. About 2×10^5 cells were then inoculated into a 6 well plate, cultured for 24 hours, and subjected to the deficient condition in the DMEM medium from which FBS was removed for about 24 hours. 24 hours later, following the treatment with TGF-β at a concentration of 5 ng/ml, fibrosis of cells was induced for 6 hours. Then, the cells were treated with pheophorbide a obtained in Preparation Example 2 or the therapeutic agent for pulmonary fibrosis and further cultured for 18 hours. Then, the negative control group was treated with nothing, the positive control group was treated with TGF-β alone at a concentration of 5 ng/ml, and the experimental groups were treated with TGF-β at a concentration of 5 ng/ml and 6 hours later, with pheophorbide a at a concentration of 5 μM and nintedanib at a concentration of 1 μM, respectively. […] The separated supernatant was obtained and transferred to a new microtube and then the protein was quantified using a bicinchoninic acid assay (BCA assay) protein quantitative kit. […]

[4] = test system: CCD8-Lu cells and LL-29 cells; experiment: Cytotoxicity of pheophorbide a (WST-1 cell survival); type: cell-based, human; conditions: 72 hours, CCD8-Lu and LL-29
Description: In order to confirm the cytotoxicity of pheophorbide a obtained in Preparation Example 2, CCD8-Lu cells and LL-29 cells which are human lung-derived fibroblasts, were used. CCD8-Lu cells and LL-29 cells were inoculated into 96 well plates with […] cells/well and stabilized while culturing for 24 hours in a wet CO2 incubator at 37° C. The cultured cells were treated with different concentrations of pheophorbide a obtained in Preparation Example 2 and, 72 hours later, treated with the WST-1 reagent. After 1 hour, the survival rate of the cells was measured using a microplate reader (EZ Read 400, biochrom, UK) to determine the absorbance at 450 nm, and the toxicity was evaluated.
The cell survival rate as a result of the experiment is shown in FIG. 3 by expressing the percentage of the absorbance of the sample-treated group relative to the control group.

pheophorbide a
anti-fibrotic effect as compared with the negative control group ([1]; BLM 1.8 mg/kg intratracheal, mice): anti-fibrotic effect
anti-fibrotic effect as compared with the positive control group (nintedanib) ([1]; nintedanib 60 mg/kg, BLM mice): significant anti-fibrotic effect
increased expression of collagen 1A induced by TGF-β [2]: remarkably inhibited
expression of phosphorylated Smad3 and phosphorylated ERK induced by TGF-β [3]: remarkably inhibited
cytotoxicity ([4]; concentration of 5 μM): about 25%
cytotoxicity ([4]; concentration of 10 μM): about 75%
cytotoxicity ([4]; up to a concentration of 2.5 μM): little cytotoxicity
